Measurements taken from patent publication US20160024051A1, “SALTS AND SOLID FORMS OF ISOQUINOLINONES AND COMPOSITION COMPRISING AND METHODS OF USING THE SAME” (INFINITY PHARMACEUTICALS, INC., priority 2013, published 2016).

Assays:
[1] = Storage at 25° C./93% RH for 1 week, re-analysis by XRPD/HPLC; assay type: physicochemical; conditions: after 1 week, XRPD
[2] = Gravimetric vapour sorption (GVS); assay type: physicochemical
Outline: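 Moisture sorption isotherm at 25° C, 0-90% RH in 10% RH steps, 2 scans giving one full cycle, starting from 40% RH. Each step equilibrated 1-4 h until mass within 5% of predicted asymptote; solid re-checked by XRPD afterwards.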

[3] = Thermodynamic aqueous solubility; assay type: physicochemical; conditions: at pH 6.47
[4] = Drying experiments: heating in an oven at 125° C. for two hours, XRPD; assay type: physicochemical
[5] = Storage at 40° C./75% RH (elevated humidity) for 1 week, re-analysis by XRPD/HPLC; conditions: after 1 week, XRPD
Procedure: The crystalline solids were filtered, dried at ambient conditions, and stored at 40° C./75% RH for 1 week and analyzed by ^1H NMR/IC.
Samples from the screen using amorphous free base Compound 1 were analysed by ^1H-NMR and DSC, and re-analysis by XRPD was also carried out after drying at 50° C./vacuum and storage at 40° C./75% RH (the same sample was dried and stored at elevated humidity).

[6] = pKa of the basic nitrogen atoms; assay type: physicochemical; conditions: at least two basic nitrogen atoms
[7] = Free base solubility assessment in 15 solvents (free base Form 1); assay type: physicochemical
Procedure: Approximately 11 mg (0.022 mmol) portions of the free base Form 1 of Compound 1 (i.e., the compound of formula (I)) were weighed into 2 ml screw-topped HPLC vials. One of 15 solvents was added to each vial in a number of aliquots (up to 100 volumes), with shaking and if necessary with heating to 40° C., in an attempt to achieve dissolution.

[8] = PK properties in non-clinical animal species (all species); assay type: in vivo, CD-1 mouse, Wistar rat, Cyno monkey, Beagle dog; conditions: non-clinical animal species
Procedure: (§1) For example, Compound 1 bis-hydrogen sulfate monohydrate was evaluated in CD-1 mouse, Wistar rat, Cyno monkey, and Beagle dog. Cross species allometric scaling of CL (drug clearance) and Vss (volume at steady state) predicts low CL, high Vss and long T112 for Compound 1 in humans.

[9] = Cross species allometric scaling of CL and Vss to humans
Procedure: as §1

PI3K-δ = PI3K-δ (Homo sapiens, UniProt O00329); assay: Kd determination, PI3K-δ; assay type: binding
PI3K-γ = PI3K-γ (Homo sapiens, UniProt P48736); assay: Kd determination, PI3K-γ; assay type: binding
PI3K-α = PI3K-α (Homo sapiens, UniProt P42336); assay: Kd determination, PI3K-α; assay type: binding
PI3K-β = PI3K-β (Homo sapiens, UniProt P42338); assay: Kd determination, PI3K-β; assay type: binding
[10] = 24 hours

Chain of PI3K-α (P42336 whole entry): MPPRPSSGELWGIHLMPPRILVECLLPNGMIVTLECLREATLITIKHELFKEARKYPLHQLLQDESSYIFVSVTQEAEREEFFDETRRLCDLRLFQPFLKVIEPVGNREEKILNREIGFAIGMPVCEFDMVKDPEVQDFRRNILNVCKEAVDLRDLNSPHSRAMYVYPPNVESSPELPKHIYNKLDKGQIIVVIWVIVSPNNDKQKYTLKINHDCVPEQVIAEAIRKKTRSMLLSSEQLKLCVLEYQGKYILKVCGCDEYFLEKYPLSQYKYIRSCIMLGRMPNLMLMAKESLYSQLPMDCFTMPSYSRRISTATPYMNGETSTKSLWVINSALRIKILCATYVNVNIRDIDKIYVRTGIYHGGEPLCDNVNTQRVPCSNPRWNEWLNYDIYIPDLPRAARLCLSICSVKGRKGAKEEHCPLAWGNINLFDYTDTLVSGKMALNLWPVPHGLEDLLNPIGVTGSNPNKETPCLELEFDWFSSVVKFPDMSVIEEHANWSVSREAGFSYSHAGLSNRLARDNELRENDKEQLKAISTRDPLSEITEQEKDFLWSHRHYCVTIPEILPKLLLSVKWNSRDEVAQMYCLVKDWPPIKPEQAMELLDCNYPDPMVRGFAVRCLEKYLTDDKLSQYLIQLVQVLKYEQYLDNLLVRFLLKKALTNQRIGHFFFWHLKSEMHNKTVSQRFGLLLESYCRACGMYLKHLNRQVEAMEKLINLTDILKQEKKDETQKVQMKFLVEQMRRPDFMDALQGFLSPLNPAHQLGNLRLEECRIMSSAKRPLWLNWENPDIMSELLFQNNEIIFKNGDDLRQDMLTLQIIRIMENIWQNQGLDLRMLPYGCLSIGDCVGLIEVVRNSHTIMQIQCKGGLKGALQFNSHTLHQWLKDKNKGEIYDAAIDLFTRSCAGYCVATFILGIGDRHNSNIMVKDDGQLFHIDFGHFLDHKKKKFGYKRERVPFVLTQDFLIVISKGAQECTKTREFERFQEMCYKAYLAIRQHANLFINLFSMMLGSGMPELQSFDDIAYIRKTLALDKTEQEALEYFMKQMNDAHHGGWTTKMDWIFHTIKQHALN
Chain of PI3K-α (P27986 whole entry partner): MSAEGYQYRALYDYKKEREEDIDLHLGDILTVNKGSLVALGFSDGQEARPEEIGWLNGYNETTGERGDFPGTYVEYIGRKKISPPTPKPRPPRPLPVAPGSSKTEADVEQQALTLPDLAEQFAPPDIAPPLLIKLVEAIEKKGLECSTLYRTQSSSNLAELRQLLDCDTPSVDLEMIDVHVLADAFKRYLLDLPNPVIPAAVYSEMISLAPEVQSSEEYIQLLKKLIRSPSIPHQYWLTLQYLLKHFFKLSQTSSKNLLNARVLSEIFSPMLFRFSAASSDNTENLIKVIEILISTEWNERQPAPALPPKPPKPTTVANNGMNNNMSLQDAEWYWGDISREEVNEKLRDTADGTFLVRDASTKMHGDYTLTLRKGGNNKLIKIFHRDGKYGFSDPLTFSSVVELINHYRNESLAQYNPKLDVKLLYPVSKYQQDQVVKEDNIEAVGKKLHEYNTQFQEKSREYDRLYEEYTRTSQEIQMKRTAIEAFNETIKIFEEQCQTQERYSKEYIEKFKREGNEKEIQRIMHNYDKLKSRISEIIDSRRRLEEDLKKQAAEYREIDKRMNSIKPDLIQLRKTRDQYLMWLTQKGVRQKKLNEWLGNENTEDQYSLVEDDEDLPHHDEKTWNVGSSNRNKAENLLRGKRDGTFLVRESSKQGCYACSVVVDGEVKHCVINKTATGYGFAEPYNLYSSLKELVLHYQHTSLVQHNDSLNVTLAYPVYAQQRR
Chain of PI3K-β (P42338 whole entry): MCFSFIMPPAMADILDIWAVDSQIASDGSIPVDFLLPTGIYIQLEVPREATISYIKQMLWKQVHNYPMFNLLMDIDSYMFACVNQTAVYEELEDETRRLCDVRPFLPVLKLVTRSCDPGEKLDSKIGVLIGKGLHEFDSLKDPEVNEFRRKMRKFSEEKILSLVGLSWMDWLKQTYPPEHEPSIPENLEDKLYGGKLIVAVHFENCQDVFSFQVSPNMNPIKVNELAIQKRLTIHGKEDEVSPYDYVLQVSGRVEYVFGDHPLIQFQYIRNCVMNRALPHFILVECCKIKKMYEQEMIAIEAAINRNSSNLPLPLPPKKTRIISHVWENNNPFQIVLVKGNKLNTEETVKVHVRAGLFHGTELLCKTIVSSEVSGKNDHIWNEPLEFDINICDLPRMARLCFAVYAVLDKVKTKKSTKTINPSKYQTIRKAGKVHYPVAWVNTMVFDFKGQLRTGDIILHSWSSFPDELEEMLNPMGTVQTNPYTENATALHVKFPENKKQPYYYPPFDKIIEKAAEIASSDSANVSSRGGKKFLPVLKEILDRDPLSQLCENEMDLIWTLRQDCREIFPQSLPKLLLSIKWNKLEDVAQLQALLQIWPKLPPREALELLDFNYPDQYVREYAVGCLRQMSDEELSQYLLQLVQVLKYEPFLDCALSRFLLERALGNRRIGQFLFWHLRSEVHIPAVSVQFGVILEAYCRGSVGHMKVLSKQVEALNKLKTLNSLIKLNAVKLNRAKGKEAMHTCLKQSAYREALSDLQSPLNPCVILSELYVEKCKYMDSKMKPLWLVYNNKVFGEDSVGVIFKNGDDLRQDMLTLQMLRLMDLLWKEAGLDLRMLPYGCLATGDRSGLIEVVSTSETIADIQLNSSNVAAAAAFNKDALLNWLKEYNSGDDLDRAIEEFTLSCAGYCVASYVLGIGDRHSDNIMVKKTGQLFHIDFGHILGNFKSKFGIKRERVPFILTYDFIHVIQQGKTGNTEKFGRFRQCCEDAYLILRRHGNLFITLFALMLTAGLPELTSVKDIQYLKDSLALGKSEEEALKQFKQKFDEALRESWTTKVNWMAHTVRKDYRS
Chain of PI3K-β (P27986 whole entry partner): as the sequence (P27986 whole entry partner) above
Chain of PI3K-δ (O00329 whole entry): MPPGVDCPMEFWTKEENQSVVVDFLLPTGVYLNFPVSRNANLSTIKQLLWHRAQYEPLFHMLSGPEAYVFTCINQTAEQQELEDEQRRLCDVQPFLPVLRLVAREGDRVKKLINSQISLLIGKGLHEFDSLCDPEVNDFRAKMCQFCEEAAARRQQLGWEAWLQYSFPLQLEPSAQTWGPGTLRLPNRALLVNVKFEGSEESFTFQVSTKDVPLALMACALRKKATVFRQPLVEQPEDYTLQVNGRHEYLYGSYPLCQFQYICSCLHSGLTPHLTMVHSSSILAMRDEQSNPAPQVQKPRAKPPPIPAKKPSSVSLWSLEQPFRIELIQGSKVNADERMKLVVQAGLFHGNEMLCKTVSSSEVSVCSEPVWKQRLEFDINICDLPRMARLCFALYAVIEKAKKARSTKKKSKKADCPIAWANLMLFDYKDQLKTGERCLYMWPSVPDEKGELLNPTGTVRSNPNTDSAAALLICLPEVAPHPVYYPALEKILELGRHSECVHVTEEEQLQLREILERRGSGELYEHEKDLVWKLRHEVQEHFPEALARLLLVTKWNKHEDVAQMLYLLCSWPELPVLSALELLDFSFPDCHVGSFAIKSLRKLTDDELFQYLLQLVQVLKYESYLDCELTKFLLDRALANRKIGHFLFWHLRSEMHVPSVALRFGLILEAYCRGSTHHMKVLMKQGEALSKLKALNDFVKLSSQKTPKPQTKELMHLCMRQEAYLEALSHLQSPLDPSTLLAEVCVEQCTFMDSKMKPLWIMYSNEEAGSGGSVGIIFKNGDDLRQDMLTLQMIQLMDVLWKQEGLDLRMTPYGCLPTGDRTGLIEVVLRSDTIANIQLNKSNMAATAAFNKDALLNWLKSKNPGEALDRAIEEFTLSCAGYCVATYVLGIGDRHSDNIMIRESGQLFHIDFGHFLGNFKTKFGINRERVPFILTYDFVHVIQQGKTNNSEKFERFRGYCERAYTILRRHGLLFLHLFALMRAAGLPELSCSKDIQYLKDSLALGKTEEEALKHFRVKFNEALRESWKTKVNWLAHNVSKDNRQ
Chain of PI3K-δ (P27986 whole entry partner): as the sequence (P27986 whole entry partner) above
Chain of PI3K-γ (P48736 whole entry): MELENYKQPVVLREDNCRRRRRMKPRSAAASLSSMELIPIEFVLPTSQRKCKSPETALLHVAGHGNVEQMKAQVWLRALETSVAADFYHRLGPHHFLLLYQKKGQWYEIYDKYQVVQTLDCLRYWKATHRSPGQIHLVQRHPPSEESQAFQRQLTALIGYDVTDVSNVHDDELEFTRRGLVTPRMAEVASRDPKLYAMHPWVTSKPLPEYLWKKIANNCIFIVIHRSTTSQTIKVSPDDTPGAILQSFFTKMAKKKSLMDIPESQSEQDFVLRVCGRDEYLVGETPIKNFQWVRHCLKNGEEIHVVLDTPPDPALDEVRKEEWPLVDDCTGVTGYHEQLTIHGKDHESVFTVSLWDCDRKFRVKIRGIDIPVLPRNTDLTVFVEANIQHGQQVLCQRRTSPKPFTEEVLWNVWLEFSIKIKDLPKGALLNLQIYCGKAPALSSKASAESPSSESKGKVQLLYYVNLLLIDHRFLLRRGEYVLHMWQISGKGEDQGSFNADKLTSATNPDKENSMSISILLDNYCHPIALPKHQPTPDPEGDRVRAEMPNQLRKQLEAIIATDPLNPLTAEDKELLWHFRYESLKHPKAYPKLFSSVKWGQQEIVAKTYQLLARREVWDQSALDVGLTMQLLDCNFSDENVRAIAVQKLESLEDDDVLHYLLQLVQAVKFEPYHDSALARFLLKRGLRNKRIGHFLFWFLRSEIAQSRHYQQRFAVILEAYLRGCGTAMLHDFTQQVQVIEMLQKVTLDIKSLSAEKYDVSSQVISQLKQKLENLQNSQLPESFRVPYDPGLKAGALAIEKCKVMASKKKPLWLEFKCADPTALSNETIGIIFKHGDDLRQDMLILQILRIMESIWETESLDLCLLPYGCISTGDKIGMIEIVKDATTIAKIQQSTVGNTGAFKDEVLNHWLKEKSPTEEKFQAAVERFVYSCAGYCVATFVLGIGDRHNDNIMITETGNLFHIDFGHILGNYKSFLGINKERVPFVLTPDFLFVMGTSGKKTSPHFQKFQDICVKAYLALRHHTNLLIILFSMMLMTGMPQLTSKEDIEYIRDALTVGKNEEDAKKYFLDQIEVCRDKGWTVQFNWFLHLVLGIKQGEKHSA

## COc1cc(-c2cccc3cc([C@H](C)Nc4nc(N)ncc4C#N)n(-c4ccccc4)c(=O)c23)ccn1.O [Compound 1 Free Base Form 2]
[1]
  Stability at 25° C./93% RH: Very slight changes after 1 week
[2]; 40-50% RH, stable on sorption up to 90% RH and desorption down to 10% RH
  GVS: immediate moisture uptake, up to: uptake (40-50% RH up to 5.7% w/w) which remains
[2]; loaded at 40% RH, 25° C.
  GVS: moisture on loading: 4.7% w/w moisture on loading. Immediate moisture
[2]; re-analysis by XRPD after GVS
  GVS: XRPD after the experiment: 40% RH. Slight changes by XRPD after the experiment.
[3]
  Thermodynamic aqueous solubility: 0.005 mg/mL, at pH 6.47
[4]
  Drying experiments: changes by XRPD: very slight changes by XRPD
[5]
  Stability at 40° C./75% RH: Very slight changes after 1 week

## COc1cc(-c2cccc3cc([C@H](C)Nc4nc(N)ncc4C#N)n(-c4ccccc4)c(=O)c23)ccn1 [Compound 1, (S)-2-amino-4-((1-(8-(2-methoxypyridin-4-yl)-1-oxo-2-phenyl-1,2-dihydroisoquinolin-3-yl)ethyl)amino)pyrimidine-5-carbonitrile]
[6]
  pKa: ~3.5
[7]; 2-MeTHF
  volumes of solvent in which Compound 1 dissolved: 50 vol.
[7]; DMSO
  volumes of solvent in which Compound 1 dissolved: 5 vol.
[7]; EtOAC
  volumes of solvent in which Compound 1 did not dissolve: > 100 vol.
[7]; EtOH
  volumes of solvent in which Compound 1 did not dissolve: > 100 vol.
[7]; EtOH/H2O
  volumes of solvent in which Compound 1 did not dissolve: > 100 vol.
[7]; H2O
  volumes of solvent in which Compound 1 did not dissolve: > 100 vol.
[7]; MIBK
  volumes of solvent in which Compound 1 dissolved: 40 vol.
[7]; MeOH, shaking, if necessary heating to 40° C.
  volumes of solvent in which Compound 1 dissolved: 75 vol.
[7]; MeOH/anisole (50/50 v/v)
  volumes of solvent in which Compound 1 dissolved: 10 vol.
[7]; TBME
  volumes of solvent in which Compound 1 did not dissolve: > 100 vol.
[7]; THF
  volumes of solvent in which Compound 1 dissolved: 40 vol.
[7]; acetone
  volumes of solvent in which Compound 1 did not dissolve: > 100 vol.
[7]; acetonitrile
  volumes of solvent in which Compound 1 did not dissolve: > 100 vol.
[7]; anisole
  volumes of solvent in which Compound 1 did not dissolve: > 100 vol.
[7]; chloroform
  volumes of solvent in which Compound 1 dissolved: 40 vol.
[8]
  oral bioavailability: Good oral bioavailability
[9]; allometric scaling
  CL (drug clearance) predicted in humans: low
  T112 predicted in humans: long
  Vss (volume at steady state) predicted in humans: high
[9]; suggested by oral bioavailability in animals
  Forai in humans: good
PI3K-δ
  koff: 0.000252 s⁻¹
  kon: 8.23e+06 M⁻¹ s⁻¹
PI3K-δ; read-out: KD = koff/kon
  Kd: 0.0306 nM
PI3K-γ
  koff: 0.000188 s⁻¹
  kon: 1.65e+06 M⁻¹ s⁻¹
PI3K-γ; read-out: KD = koff/kon
  Kd: 0.114 nM
PI3K-α
  koff: 0.053 s⁻¹
  kon: 5.43e+06 M⁻¹ s⁻¹
PI3K-α; read-out: KD = koff/kon
  Kd: 9.76 nM
PI3K-β
  koff: 0.0126 s⁻¹
  kon: 2.03e+06 M⁻¹ s⁻¹
PI3K-β; read-out: KD = koff/kon
  Kd: 6.24 nM

## COc1cc(-c2cccc3cc([C@H](C)Nc4nc(N)ncc4C#N)n(-c4ccccc4)c(=O)c23)ccn1
[10]
  crystallinity after standing at RT: decreases
